The supplement of paper PMC13380429

How the values were obtained:
Details in all cases: 72 h
[1] = tested on: Calu-3; assay: drug sensitivity score (DSS) for viability; higher = more toxic; extreme values may be limits of the assay
[2] = tested on: HepG2; assay: as above
[3] = tested on: U2OS; assay: as above
[4] = tested on: Vero E6; assay: as above
[5] = tested on: Caco-2; assay: as above
[6] = tested on: Calu-3; assay: relative viability EC50 (midpoint between 100% and the lowest measured viability); higher = less toxic
[7] = tested on: HepG2; assay: as above
[8] = tested on: U2OS; assay: as above
[9] = tested on: Vero E6; assay: as above
[10] = tested on: Caco-2; assay: as above
[11] = tested on: Calu-3; assay: cell viability relative to DMSO; higher = less toxic
[12] = tested on: HepG2; assay: as above
[13] = tested on: U2OS; assay: as above
[14] = tested on: Vero E6; assay: as above
[15] = tested on: Caco-2; assay: as above

Compound	drug sensitivity score [1]	drug sensitivity score [2]	drug sensitivity score [3]	drug sensitivity score [4]	drug sensitivity score [5]	relative viability EC50 [6]	relative viability EC50 [7]	relative viability EC50 [8]	relative viability EC50 [9]	relative viability EC50 [10]	cell viability ([11]; 1 nM)	cell viability ([11]; 10 nM)	cell viability ([11]; 100 nM)	cell viability ([11]; 1000 nM)	cell viability ([11]; 10000 nM)	cell viability ([12]; 1 nM)	cell viability ([12]; 10 nM)	cell viability ([12]; 100 nM)	cell viability ([12]; 1000 nM)	cell viability ([12]; 10000 nM)	cell viability ([13]; 1 nM)	cell viability ([13]; 10 nM)	cell viability ([13]; 100 nM)	cell viability ([13]; 1000 nM)	cell viability ([13]; 10000 nM)	cell viability ([14]; 1 nM)	cell viability ([14]; 10 nM)	cell viability ([14]; 100 nM)	cell viability ([14]; 1000 nM)	cell viability ([14]; 10000 nM)	cell viability ([15]; 1 nM)	cell viability ([15]; 10 nM)	cell viability ([15]; 100 nM)	cell viability ([15]; 1000 nM)	cell viability ([15]; 10000 nM)
CNC(=O)c1c(-c2ccc(F)cc2)oc2cc(N(CCO)S(C)(=O)=O)c(C3CC3)cc12 [nesbuvir]	0	0	0	0	0	> 10 µM	> 10 µM	> 10 µM	> 10 µM	> 10 µM	108%	107%	99.9%	110%	103%	97.3%	90%	103%	92.2%	107%	93.3%	102%	96.4%	99.9%	102%	98.4%	97%	98.6%	93.6%	103%	94%	101%	95%	99%	101%
Cc1ccccc1-c1cc(N2CCN(C)CC2)ncc1N(C)C(=O)C(C)(C)c1cc(C(F)(F)F)cc(C(F)(F)F)c1 [netupitant]	0	0	0	0	0	> 10 µM	> 10 µM	> 10 µM	> 10 µM	> 10 µM	94.8%	101%	105%	112%	102%	95%	98.2%	104%	97.9%	95.6%	102%	99%	101%	99.4%	96.5%	106%	108%	103%	104%	97.5%	93.2%	92.6%	91.5%	96%	95.2%
CO[C@H]1C[C@H](O[C@H]2CC[C@@]3(C)[C@H](CC[C@@H]4[C@@H]3CC[C@]3(C)[C@@H](C5=CC(=O)OC5)[C@@H](OC(C)=O)C[C@]43O)C2)O[C@@H](C)[C@@H]1O [oleandrin]	24.5	24.1	28.1	32.3	28.6	0.0355 µM	0.0769 µM	0.0334 µM	0.0214 µM	0.0155 µM	102%	89.3%	31.6%	18.4%	17.4%	102%	107%	38.1%	7.4%	6.4%	104%	98.4%	10.8%	7.3%	9.5%	101%	87.5%	1.1%	1.1%	1.3%	98.1%	79.5%	17.8%	19.5%	20.9%
Fc1ccc([C@@H]2CCNC[C@H]2COc2ccc3c(c2)OCO3)cc1 [paroxetine]	0	0	0	0	0.6	> 10 µM	> 10 µM	> 10 µM	> 10 µM	> 10 µM	95.9%	87.4%	93.1%	85.1%	108%	117%	120%	108%	83.7%	102%	97.7%	96.4%	103%	98%	101%	95.9%	104%	98.7%	101%	100%	85.8%	102%	111%	98.6%	82.1%
